Data from ChEMBL document CHEMBL1201862, “PubChem BioAssay data set” (2004).
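How tested: cells in 96-well plates exposed to compound for 48 hours at five concentrations. At the GI50, growth is halved.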 The source made the active and inactive calls. No stated cut-off is given here; in the data, active = GI50 up to about 1.1 µM and inactive = higher.

Tests used:
Assay in all cases: NCI-60 cell line screen, 48 h
SK-MEL-28 = tested on: SK-MEL-28
NCI-H23 = tested on: NCI-H23
K562 = tested on: K562
UACC-257 = tested on: UACC-257
NCI-H460 = tested on: NCI-H460
RPMI-8226 = tested on: RPMI-8226
UACC-62 = tested on: UACC-62
M14 = tested on: M14
SNB-75 = tested on: SNB-75
HCT-15 = tested on: HCT-15
KM12 = tested on: KM12
CCRF-CEM = tested on: CCRF-CEM
HOP-92 = tested on: HOP-92
CAKI-1 = tested on: CAKI-1
SW-620 = tested on: SW-620
SNB-19 = tested on: SNB-19
Malme-3M = tested on: Malme-3M
SF-268 = tested on: SF-268

Compound	GI50 (SK-MEL-28)	GI50 (NCI-H23)	GI50 (K562)	GI50 (UACC-257)	GI50 (NCI-H460)	GI50 (RPMI-8226)	GI50 (UACC-62)	GI50 (M14)	GI50 (SNB-75)	GI50 (HCT-15) [µM]	GI50 (KM12)	GI50 (CCRF-CEM)	GI50 (HOP-92)	GI50 (CAKI-1)	GI50 (SW-620)	GI50 (SNB-19)	GI50 (Malme-3M)	GI50 (SF-268)
COC12OCCN(C)C1=CC(=O)C1=NNC(C)C12 (stereo not drawn)	> 100 µM (inactive)	> 100 µM (inactive)	> 100 µM (inactive)	> 100 µM (inactive)	> 100 µM (inactive)	> 100 µM (inactive)	> 100 µM (inactive)	> 100 µM (inactive)	> 100 µM (inactive)	> 100	> 100 µM (inactive)	> 100 µM (inactive)	> 100 µM (inactive)	> 100 µM (inactive)	> 100 µM (inactive)			
COc1ccc(Oc2cccc(C3C4C(=O)N(c5ccc(C)c(Cl)c5)C(=O)C4ON3C(C(N)=O)c3ccccc3)c2)cc1 (stereo not drawn)	41.5 µM (inactive)	8.55 µM (inactive)	16.6 µM (inactive)	10.7 µM (inactive)	14.8 µM (inactive)		10.9 µM (inactive)	13.1 µM (inactive)	6.08 µM (inactive)	8.39	18 µM (inactive)	14 µM (inactive)	24 µM (inactive)	21 µM (inactive)	20.9 µM (inactive)	24 µM (inactive)	15.8 µM (inactive)	18.3 µM (inactive)
CCOC1=C2N=C(Cc3ccccc3F)N=C2C(=O)c2ccccc21	> 100 µM (inactive)	> 100 µM (inactive)	> 100 µM (inactive)	> 100 µM (inactive)	> 100 µM (inactive)	> 100 µM (inactive)	> 100 µM (inactive)	> 100 µM (inactive)	90.8 µM (inactive)	> 100	> 100 µM (inactive)	> 100 µM (inactive)	> 100 µM (inactive)	> 100 µM (inactive)	> 100 µM (inactive)	> 100 µM (inactive)	> 100 µM (inactive)	> 100 µM (inactive)
O=C1CCC(c2nc3ccccc3o2)C(=O)N1 (stereo not drawn)	> 100 µM (inactive)	> 100 µM (inactive)	> 100 µM (inactive)	> 100 µM (inactive)	> 100 µM (inactive)		> 100 µM (inactive)	> 100 µM (inactive)	79.1 µM (inactive)	> 100	> 100 µM (inactive)	> 100 µM (inactive)	> 100 µM (inactive)	> 100 µM (inactive)	> 100 µM (inactive)	> 100 µM (inactive)	> 100 µM (inactive)	> 100 µM (inactive)
O=C(O)CCNCCCCNCCC(=O)O	> 100 µM (inactive)	> 100 µM (inactive)	> 100 µM (inactive)		> 100 µM (inactive)	> 100 µM (inactive)	> 100 µM (inactive)	> 100 µM (inactive)	> 100 µM (inactive)	> 100	> 100 µM (inactive)	> 100 µM (inactive)	> 100 µM (inactive)	> 100 µM (inactive)	> 100 µM (inactive)	> 100 µM (inactive)	> 100 µM (inactive)	> 100 µM (inactive)
COc1ccc(C=C(c2ccc(OCc3ccccc3)cc2)c2ccc(OCc3ccccc3)cc2)cc1	> 100 µM (inactive)	> 100 µM (inactive)		> 100 µM (inactive)	> 100 µM (inactive)	> 100 µM (inactive)	> 100 µM (inactive)	> 100 µM (inactive)	> 100 µM (inactive)	> 100	> 100 µM (inactive)			> 100 µM (inactive)	> 100 µM (inactive)	> 100 µM (inactive)	> 100 µM (inactive)	> 100 µM (inactive)
Cc1c2ccncc2c(C)c2c1[nH]c1ccc(OC(C)(C)C)cc12	1.76 µM (inactive)	5.36 µM (inactive)	2.08 µM (inactive)	1.97 µM (inactive)	1.93 µM (inactive)	2.08 µM (inactive)	2.31 µM (inactive)	4.06 µM (inactive)	1.85 µM (inactive)			2.07 µM (inactive)	9.82 µM (inactive)	1.81 µM (inactive)	2.14 µM (inactive)	2.47 µM (inactive)	1.77 µM (inactive)	5.12 µM (inactive)
CCCCCCCCCCn1cccc1/C=C/c1ccc(/C=C/c2cccn2CCCCCCCCCC)cc1	> 100 µM (inactive)	> 100 µM (inactive)	> 100 µM (inactive)	> 100 µM (inactive)	> 100 µM (inactive)	> 100 µM (inactive)	> 100 µM (inactive)	> 100 µM (inactive)	> 100 µM (inactive)		> 100 µM (inactive)	> 100 µM (inactive)	> 100 µM (inactive)	> 100 µM (inactive)	> 100 µM (inactive)	> 100 µM (inactive)	> 100 µM (inactive)	> 100 µM (inactive)
N#CC1(CCCCl)CCCCC1	> 100 µM (inactive)	> 100 µM (inactive)	> 10 µM (inactive)	> 100 µM (inactive)	> 100 µM (inactive)		> 100 µM (inactive)	> 100 µM (inactive)	32.4 µM (inactive)	> 100	> 100 µM (inactive)	> 100 µM (inactive)	> 100 µM (inactive)		> 100 µM (inactive)	> 100 µM (inactive)	> 100 µM (inactive)	> 100 µM (inactive)
COc1ccc(Nc2nc3cc(C(F)(F)F)ccc3nc2-c2ccccc2)cc1OC	19.8 µM (inactive)	25.7 µM (inactive)	61 µM (inactive)	27.2 µM (inactive)	27.7 µM (inactive)		27.4 µM (inactive)	38.6 µM (inactive)	28.4 µM (inactive)	64.4	> 100 µM (inactive)	82.6 µM (inactive)	1.16 µM (inactive)	31.5 µM (inactive)	35.5 µM (inactive)		21.7 µM (inactive)	38 µM (inactive)
CC1=Nn2c(nnc2-c2ccc(N)cc2)NC(C)(C)C1	> 100 µM (inactive)	> 100 µM (inactive)	> 100 µM (inactive)	> 100 µM (inactive)	> 100 µM (inactive)	> 100 µM (inactive)	> 100 µM (inactive)	> 100 µM (inactive)		> 100	> 100 µM (inactive)	> 100 µM (inactive)	> 100 µM (inactive)	> 100 µM (inactive)	> 100 µM (inactive)	> 100 µM (inactive)	> 100 µM (inactive)	> 100 µM (inactive)
COc1ccc(O)c2c1C(=O)CCCC2=O	> 100 µM (inactive)	> 100 µM (inactive)	> 100 µM (inactive)	> 100 µM (inactive)	> 100 µM (inactive)	> 100 µM (inactive)	> 100 µM (inactive)	> 100 µM (inactive)		> 100	> 100 µM (inactive)	> 100 µM (inactive)		> 100 µM (inactive)	> 100 µM (inactive)	> 100 µM (inactive)	> 100 µM (inactive)	> 100 µM (inactive)
COc1ccc(C(=O)C=C2NCCN2)cc1	> 100 µM (inactive)	> 100 µM (inactive)	> 100 µM (inactive)	> 100 µM (inactive)	> 100 µM (inactive)	> 100 µM (inactive)	> 100 µM (inactive)	> 100 µM (inactive)	> 100 µM (inactive)		> 100 µM (inactive)	> 100 µM (inactive)	> 100 µM (inactive)	> 100 µM (inactive)	> 100 µM (inactive)	> 100 µM (inactive)	> 100 µM (inactive)	> 100 µM (inactive)
Cc1cc(C)nc(NS(=O)(=O)c2ccc(Nc3c4ccccc4nc4c(C(=O)Nc5ccc(S(=O)(=O)Nc6cc(C)on6)cc5)ccc(Cl)c34)cc2)n1	27.7 µM (inactive)	20.3 µM (inactive)	27.8 µM (inactive)	28.9 µM (inactive)	22 µM (inactive)	20.6 µM (inactive)	26.4 µM (inactive)	20.1 µM (inactive)	31.7 µM (inactive)	28.9	17.3 µM (inactive)	21.8 µM (inactive)				22.4 µM (inactive)	28.1 µM (inactive)	27.2 µM (inactive)
CCOC(=O)C(Cc1ccccc1)NC(=O)c1nc[nH]c1/N=N/N(C)C (stereo not drawn)	> 100 µM (inactive)	> 100 µM (inactive)	> 100 µM (inactive)	> 100 µM (inactive)	> 100 µM (inactive)	> 100 µM (inactive)	> 100 µM (inactive)	> 100 µM (inactive)	> 100 µM (inactive)	> 100	> 100 µM (inactive)	> 100 µM (inactive)		> 100 µM (inactive)	> 100 µM (inactive)	> 100 µM (inactive)	> 100 µM (inactive)	> 100 µM (inactive)
C=CCOC(C)n1c(C)c(Br)c(=O)[nH]c1=O (stereo not drawn)	> 100 µM (inactive)	> 100 µM (inactive)		> 100 µM (inactive)	> 100 µM (inactive)		> 100 µM (inactive)		> 100 µM (inactive)	> 100	> 100 µM (inactive)	> 100 µM (inactive)	> 100 µM (inactive)	> 100 µM (inactive)	> 100 µM (inactive)	> 100 µM (inactive)	> 100 µM (inactive)	> 100 µM (inactive)
C/C(=N\NS(=O)(=O)c1ccc(C)cc1)C(CN1CCCCC1)C(c1ccccc1)c1c(O)c2ccccc2oc1=O (stereo not drawn)		> 100 µM (inactive)	> 100 µM (inactive)	> 100 µM (inactive)	> 100 µM (inactive)	> 100 µM (inactive)	> 100 µM (inactive)	> 100 µM (inactive)	> 100 µM (inactive)	> 100	> 100 µM (inactive)	> 100 µM (inactive)	95.7 µM (inactive)	> 100 µM (inactive)	70.6 µM (inactive)	> 100 µM (inactive)	> 100 µM (inactive)	> 100 µM (inactive)
